Test system: batrachotoxin (BTX) binding site of the sodium channel
Test: Affinity for the batrachotoxin (BTX) binding site of the sodium channel, [3H]-batrachotoxinin A20 α-benzoate, rat cerebrocortex synaptosomes
Conditions: test concentration not given

Compound: CN(C)S(=O)(=O)N1CCc2onc(C(=O)NCCc3ccc(Cl)cc3)c2C1 [Example 76, 5-dimethylsulfamoyl-4,5,6,7-tetrahydro-isoxazolo[4,5-c]pyridine-3-carboxylic acid [2-(4-chlorophenyl)-ethyl] amide]
- BTX inhibition (rat) % inhibition: 41%

Compound: O=C(NC1CCCC1)c1noc2c1CN(C(=O)COc1ccc(Cl)cc1)CC2 [Example 81, 5-[2-(4-chlorophenoxy)-acetyl]-4,5,6,7-tetrahydro-isoxazolo[4,5-c]pyridine-3-carboxylic acid cyclopentyl amide]
- BTX inhibition (rat) % inhibition: 65%

Compound: O=C(NC1CCCC1OCc1ccccc1)c1noc2c1CN(S(=O)(=O)c1cc(Cl)ccc1Cl)CC2 (stereo not shown) [Example 40, 5-(2,5-dichloro-benzenesulfonyl)-4,5,6,7-tetrahydro-isoxazolo[4,5-c]pyridine-3-carboxylic acid (2-benzyloxy-cyclopentyl) amide]
- BTX inhibition (rat) % inhibition: 65%

Compound: O=C(NCc1ccccc1)c1noc2c1CN(C(=O)NCCc1ccccc1)CC2 [Example 10, 6,7-dihydro-4H-isoxazolo[4,5-c]pyridine-3,5-dicarboxylic acid 3-benzyl amide 5-(phenethyl amide)]
- BTX inhibition (rat) % inhibition: 64%

Compound: CCOc1ccc(NC(=O)N2CCc3onc(C(=O)NCc4ccc(F)cc4)c3C2)cc1 [Example 21, 6,7-dihydro-4H-isoxazolo[4,5-c]pyridine-3,5-dicarboxylic acid 5-[(4-ethoxy-phenyl) amide] 3-(4-fluorobenzyl amide)]
- BTX inhibition (rat) % inhibition: 68%

Compound: O=C(NCc1ccc(C(F)(F)F)c(F)c1)c1noc2c1CN(S(=O)(=O)c1ccccc1)CC2 [Example 113, 5-benzenesulfonyl-4,5,6,7-tetrahydro-isoxazolo[4,5-c]pyridine-3-carboxylic acid 3-fluoro-4-trifluoromethyl-benzyl amide]
- BTX inhibition (rat) % inhibition: 60%

Compound: O=C(c1noc2c1CN(S(=O)(=O)c1ccc3ccccc3c1)CC2)N1CCC(CCN2CCCC2)CC1 [Example 148, (5-(naphthalen-2-ylsulfonyl)-4,5,6,7-tetrahydroisoxazolo[4,5-c]pyridin-3-yl)(4-(2-(pyrrolidin-1-yl)ethyl)piperidin-1-yl)methanone]
- BTX inhibition (rat) % inhibition: 74%

Compound: COc1ccc(Cl)cc1NC(=O)N1CCc2onc(C(=O)NCCc3ccccc3)c2C1 [Example 22, 6,7-dihydro-4H-isoxazolo[4,5-c]pyridine-3,5-dicarboxylic acid 5-[(5-chloro-2-methoxyphenyl) amide] 3-(phenethyl amide)]
- BTX inhibition (rat) % inhibition: 56%

Compound: O=C(NCCc1ccccc1)c1noc2c1CN(C(=O)Nc1cccc(F)c1)CC2 [Example 8, 6,7-dihydro-4H-isoxazolo[4,5-c]pyridine-3,5-dicarboxylic acid 5-[(3-fluorophenyl) amide] 3-(phenethyl amide)]
- BTX inhibition (rat) % inhibition: 72%

Compound: Cc1ccc(S(=O)(=O)N2CCc3onc(C(=O)NC4CCN(Cc5c(Cl)cccc5Cl)C4)c3C2)cc1 (stereo not shown) [Example 91, 5-(toluene-4-sulfonyl)-4,5,6,7-tetrahydro-isoxazolo[4,5-c]pyridine-3-carboxylic acid [1-(2,6-dichloro-benzyl)-pyrrolidin-3-yl] amide]
- BTX inhibition (rat) % inhibition: 61%

Compound: O=C(NC1CCCC1)c1noc2c1CN(C(=O)NCc1ccc(F)cc1)CC2 [Example 2, 6,7-dihydro-4H-isoxazolo[4,5-c]pyridine-3,5-dicarboxylic acid 3-cyclopentyl amide 5-(4-fluorobenzyl amide)]
- BTX inhibition (rat) % inhibition: 83%

Compound: O=C(NCCN1CCOCC1)c1noc2c1CN(S(=O)(=O)c1cc(Cl)c(Cl)s1)CC2 [Example 63, 5-(4,5-dichloro-thiophene-2-sulfonyl)-4,5,6,7-tetrahydro-isoxazolo[4,5-c]pyridine-3-carboxylic acid (2-morpholin-4-yl-ethyl) amide]
- BTX inhibition (rat) % inhibition: 55%

Compound: O=C(NCC1CC1)c1noc2c1CN(C(=S)NCc1ccc(Cl)cc1)CC2 [Example 129, 5-(4-chloro-benzylthiocarbamoyl)-4,5,6,7-tetrahydro-isoxazolo[4,5-c]pyridine-3-carboxylic acid cyclopropylmethyl amide]
- BTX inhibition (rat) % inhibition: 53%

Compound: O=C(c1noc2c1CN(S(=O)(=O)c1ccccc1)CC2)N1CCN(CC=Cc2ccccc2)CC1 [Example 97, (5-benzenesulfonyl-4,5,6,7-tetrahydro-isoxazolo[4,5-c]pyridin-3-yl)-[4-(3-phenyl-allyl)-piperazin-1-yl]-methanone]
- BTX inhibition (rat) % inhibition: 70%

Compound: CC(NC(=O)N1CCc2onc(C(=O)NCc3ccccc3)c2C1)c1ccccc1 (stereo not shown) [Example 150, N^3-benzyl-N^5-(1-phenylethyl)-6,7-dihydroisoxazolo[4,5-c]pyridine-3,5(4H)-dicarboxamide]
- BTX inhibition (rat) % inhibition: 49%

Compound: Cc1cc(C)c(S(=O)(=O)N2CCc3onc(C(=O)N4CCC(CCN5CCCC5)CC4)c3C2)c(C)c1 [Example 146, (5-(mesitylsulfonyl)-4,5,6,7-tetrahydroisoxazolo[4,5-c]pyridin-3-yl)(4-(2-(pyrrolidin-1-yl)ethyl)piperidin-1-yl)methanone]
- BTX inhibition (rat) % inhibition: 81%

Compound: COCCNC(=S)N1CCc2onc(C(=O)NCCc3ccccc3)c2C1 [Example 130, 5-(2-methoxy-ethylthiocarbamoyl)-4,5,6,7-tetrahydro-isoxazolo[4,5-c]pyridine-3-carboxylic acid phenethyl amide]
- BTX inhibition (rat) % inhibition: 68%

Compound: CC(NC(=O)N1CCc2onc(C(=O)NCCc3ccccc3)c2C1)c1cccc2ccccc12 (stereo not shown) [Example 18, 6,7-dihydro-4H-isoxazolo[4,5-c]pyridine-3,5-dicarboxylic acid 5-[(1-naphthalen-1-yl-ethyl) amide]3-(phenethyl amide)]
- BTX inhibition (rat) % inhibition: 75%

Compound: CC12CCC(C(=O)N3CCc4onc(C(=O)NCCN5CCCC5)c4C3)(OC1=O)C2(C)C (stereo not shown) [Example 51, 5-(4,7,7-trimethyl-3-oxo-2-oxa-bicyclo[2.2.1]heptane-1-carbonyl)-4,5,6,7-tetrahydro-isoxazolo[4,5-c]pyridine-3-carboxylic acid (2-pyrrolidin-1-yl-ethyl) amide]
- BTX inhibition (rat) % inhibition: 42%

Compound: COc1ccc(CNC(=S)N2CCc3onc(C(=O)NC4CCCC4)c3C2)cc1 [Example 127, 5-(4-methoxy-benzylthiocarbamoyl)-4,5,6,7-tetrahydro-isoxazolo[4,5-c]pyridine-3-carboxylic acid cyclopentyl amide]
- BTX inhibition (rat) % inhibition: 74%

Compound: O=C(c1noc2c1CN(S(=O)(=O)c1ccc(F)cc1)CC2)N1CC=C(c2ccc(F)cc2)CC1 [Example 42, [5-(4-fluoro-benzenesulfonyl)-4,5,6,7-tetrahydro-isoxazolo[4,5-c]pyridin-3-yl]-[4-(4-fluorophenyl)-3,6-dihydro-2H-pyridin-1-yl]-methanone]
- BTX inhibition (rat) % inhibition: 54%

Compound: Cc1ccc(S(=O)(=O)N2CCc3onc(C(=O)N4CCN(CCC5CCCCC5)CC4)c3C2)cc1 [Example 82, [4-(2-cyclohexyl-ethyl)-piperazin-1-yl]-[5-(toluene-4-sulfonyl)-4,5,6,7-tetrahydro-isoxazolo[4,5-c]pyridin-3-yl]-methanone]
- BTX inhibition (rat) % inhibition: 69%

Compound: Cc1ccc(S(=O)(=O)N2CCc3onc(C(=O)NCc4ccc(S(N)(=O)=O)cc4)c3C2)cc1 [Example 157, N-(4-sulfamoylbenzyl)-5-tosyl-4,5,6,7-tetrahydroisoxazolo[4,5-c]pyridine-3-carboxamide]
- BTX inhibition (rat) % inhibition: 17%

Compound: O=C(NCCN1CCCC1)c1noc2c1CN(C(=O)COc1cccc(Cl)c1)CC2 [Example 94, 5-[2-(3-chlorophenoxy)-acetyl]-4,5,6,7-tetrahydro-isoxazolo[4,5-c]pyridine-3-carboxylic acid (2-pyrrolidin-1-yl-ethyl) amide]
- BTX inhibition (rat) % inhibition: 60%

Compound: Cl.O=C(c1noc2c1CN(S(=O)(=O)c1cccc3ccccc13)CC2)N1CCC(CCN2CCCC2)CC1 [Example 149, (5-(Naphthalene-1-ylsulfonyl)-4,5,6,7-tetrahydroisoxazolo[4,5-c]pyridin-3-yl)(4-(2-(pyrrolidin-1-yl)ethyl)piperidin-1-yl)methanone hydrochloride]
- BTX inhibition (rat) % inhibition: 86%

Compound: CC(CNC(=O)c1noc2c1CN(S(=O)(=O)c1cccs1)CC2)c1ccccc1 (stereo not shown) [Example 104, 5-(thiophene-2-sulfonyl)-4,5,6,7-tetrahydro-isoxazolo[4,5-c]pyridine-3-carboxylic acid (2-phenyl-propyl) amide]
- BTX inhibition (rat) % inhibition: 50%

Compound: O=C(c1noc2c1CN(S(=O)(=O)c1ccc(F)cc1)CC2)N1CCN(c2ncnc3sccc23)CC1 [Example 34]
- BTX inhibition (rat) % inhibition: 42%

Compound: Cc1ccc(N2CCN(C(=O)c3noc4c3CN(S(=O)(=O)c3cc(Cl)ccc3Cl)CC4)CC2)c(C)c1 [Example 65, [5-(2,5-dichloro-benzenesulfonyl)-4,5,6,7-tetrahydro-isoxazolo[4,5-c]pyridin-3-yl]-[4-(2,4-dimethyl-phenyl)-piperazin-1-yl]-methanone]
- BTX inhibition (rat) % inhibition: 49%

Compound: O=C(c1noc2c1CN(S(=O)(=O)c1cccc3ccccc13)CC2)N1CCN(c2nccs2)CC1 [Example 142, (5-(naphthalen-1-ylsulfonyl)-4,5,6,7-tetrahydroisoxazolo[4,5-c]pyridin-3-yl)(4-(thiazol-2-yl)piperazin-1-yl)methanone]
- BTX inhibition (rat) % inhibition: 54%

Compound: Cc1ccc(NC(=O)N2CCc3onc(C(=O)NCc4cccs4)c3C2)cc1[N+](=O)[O-] [Example 9, 6,7-dihydro-4H-isoxazolo[4,5-c]pyridine-3,5-dicarboxylic acid 5-[(4-methyl-3-nitro-phenyl) amide] 3-[(thiophen-2-ylmethyl) amide]]
- BTX inhibition (rat) % inhibition: 43%

Compound: O=C(NCCc1ccccc1Cl)c1noc2c1CN(S(=O)(=O)c1cc(Cl)ccc1Cl)CC2 [Example 52, 5-(2,5-dichloro-benzenesulfonyl)-4,5,6,7-tetrahydro-isoxazolo[4,5-c]pyridine-3-carboxylic acid [2-(2-chlorophenyl)-ethyl] amide]
- BTX inhibition (rat) % inhibition: 44%

Reference: patent US8048879B2, “Substituted 4,5,6,7-tetrahydro-isoxazolo[4,5-c]pyridine compounds and use thereof for producing medicaments” (Gruenenthal GmbH, priority 2005, dated 2011)
